Test results from PubChem BioAssay AID1996.
Values after ≈ are worked out from the molar mass of the structure shown.

Conditions: buffer; pH 7.4; 200.0 µM

Which solubility kinetic does the source give for `O=C1NC(=O)N(Cc2ccccc2F)C1=O` here?
Its solubility kinetic is over 33.3 µg/mL.

For `Cc1oc(C(N)=O)cc1COc1ccc(C(N)=O)cc1`, which solubility kinetic is on record?
The solubility kinetic was 32.9 µg/mL (≈ 120 µM).

For `Cc1cc(=O)n(CC(=O)O)c2ccccc12`, which solubility kinetic is on record?
Its solubility kinetic is over 32.6 µg/mL.

With `Cc1cc(-c2onc(C)c2C(=O)Oc2ccc(Cl)cc2)no1` as the molecule, how does the solubility kinetic read?
Its solubility kinetic is 0.5 µg/mL (≈ 1.57 µM).

For `c1ccc(-c2cc(-c3ccccc3)on2)cc1`, which solubility kinetic is on record?
Its solubility kinetic is under 0.5 µg/mL.

For `Cc1cc(C)cc(NC(=O)C2CCN(C(=O)c3cccs3)CC2)c1`, which solubility kinetic is on record?
The solubility kinetic was over 51.4 µg/mL.

For `Clc1ccc(-c2csc(N3CCCCCC3)n2)cc1`, which solubility kinetic is on record?
The solubility kinetic was under 0.3 µg/mL.

For `CN=c1scc(-c2ccccc2F)n1/N=C/c1ccc(O)c(O)c1O`, which solubility kinetic is on record?
The solubility kinetic was over 53.9 µg/mL.

For `CCCNc1nc(Cl)nc(Nc2ccc(Cl)cc2)n1`, which solubility kinetic is on record?
The solubility kinetic was 1.1 µg/mL (≈ 3.69 µM).

Which solubility kinetic does the source give for `Cc1cc(C)c(S(=O)(=O)Nc2ccncc2)cc1C` here?
Its solubility kinetic is 19.2 µg/mL (≈ 69.5 µM).

For `COc1ccc(N=C(C)c2c(O)[nH]c(=O)[nH]c2=O)cc1`, which solubility kinetic is on record?
The solubility kinetic was 5 µg/mL (≈ 18.2 µM).

With `O=c1[nH]c2ccccc2nc1Cc1ccc(Cl)cc1` as the molecule, how does the solubility kinetic read?
Its solubility kinetic is 0.9 µg/mL (≈ 3.32 µM).

With `O=c1c2ccccc2ncn1CCOCCOc1ccc([N+](=O)[O-])cc1` as the molecule, how does the solubility kinetic read?
Its solubility kinetic is 17.1 µg/mL (≈ 48.1 µM).

With `COc1ccc(C(=O)C2CCN(C(=O)c3ccc(F)cc3)CC2)cc1` as the molecule, how does the solubility kinetic read?
Its solubility kinetic is 50.6 µg/mL (≈ 148 µM).

Which solubility kinetic does the source give for `Cc1ccc(OCC(=O)NCc2ccco2)c([N+](=O)[O-])n1` here?
Its solubility kinetic is 37.3 µg/mL (≈ 128 µM).

With `CN(C)c1ccc(CN2CCC(C(N)=O)CC2)cc1.O=C(O)C(=O)O` as the molecule, how does the solubility kinetic read?
The solubility kinetic was over 52.7 µg/mL.

For `CC(=O)NC(=O)COC(=O)c1ccc2ncsc2c1`, which solubility kinetic is on record?
Its solubility kinetic is 27.5 µg/mL (≈ 98.8 µM).

For `C=CCc1cc(Cl)ccc1OCCn1ccnc1.O=C(O)C(=O)O`, which solubility kinetic is on record?
Its solubility kinetic is 39.5 µg/mL.

With `Cc1ccc2c(c1)N(CC(=O)N1CCOCC1)C(=O)C(C)O2` (stereo not drawn) as the molecule, how does the solubility kinetic read?
Its solubility kinetic is 39.6 µg/mL (≈ 130 µM).

Which solubility kinetic does the source give for `COc1cc2c(cc1OC)C(C)N(C(=O)Nc1cc(C)cc(C)c1)CC2` (stereo not drawn) here?
Its solubility kinetic is 2.7 µg/mL (≈ 7.62 µM).

For `Cc1cccc(NC(=O)COC(=O)C2COc3ccccc3O2)c1C` (stereo not drawn), which solubility kinetic is on record?
Its solubility kinetic is over 51.2 µg/mL.

Which solubility kinetic does the source give for `COc1ccc2cc(C(=O)NCc3ccccc3)c(=O)oc2c1` here?
Its solubility kinetic is under 0.7 µg/mL.

For `Cc1cc(S(=O)(=O)Nc2nc(CN3CCOCC3)nc3sc4c(c23)CCC4)ccc1F`, which solubility kinetic is on record?
The solubility kinetic was 67.4 µg/mL (≈ 146 µM).

With `CSCCC(NC(=O)c1ccccc1Cl)C(=O)NCCc1ccccn1` (stereo not drawn) as the molecule, how does the solubility kinetic read?
Its solubility kinetic is over 58.8 µg/mL.

For `COC(=O)c1ccc(CSCC(=O)Nc2ccccc2)cc1`, which solubility kinetic is on record?
Its solubility kinetic is over 47.3 µg/mL.

Which solubility kinetic does the source give for `COc1ccc(-n2c(C)c(C(=O)O)c3cc(OC)c4ccccc4c32)cc1` here?
The solubility kinetic was under 0.8 µg/mL.

Which solubility kinetic does the source give for `Cc1ccc(/C(N)=N/OC(=O)CCCc2ccccc2)cc1` here?
Its solubility kinetic is 2 µg/mL (≈ 6.75 µM).

With `COC(=O)c1c(C)oc(C)c1S(=O)(=O)NCc1ccco1` as the molecule, how does the solubility kinetic read?
Its solubility kinetic is over 47 µg/mL.

Which solubility kinetic does the source give for `Cc1cccc(N2N=C(C(=O)O)CCC2=O)c1` here?
Its solubility kinetic is over 34.8 µg/mL.

With `O=C(COC(=O)Cc1ccccc1F)NCCc1ccccc1` as the molecule, how does the solubility kinetic read?
Its solubility kinetic is over 47.3 µg/mL.

Which solubility kinetic does the source give for `CC1CCCCN1C(=S)NC(=O)c1ccco1` (stereo not drawn) here?
Its solubility kinetic is over 37.8 µg/mL.

Which solubility kinetic does the source give for `O=C(Cc1ccccc1)Nc1c(Cl)ccc2nsnc12` here?
Its solubility kinetic is 4.9 µg/mL (≈ 16.1 µM).

With `CCCCc1c(C)nc2ccccc2c1SCCC(=O)O` as the molecule, how does the solubility kinetic read?
Its solubility kinetic is over 45.5 µg/mL.

For `O=C(N/C(=C\c1ccccc1)C(=O)N1CCCCC1)c1ccco1`, which solubility kinetic is on record?
The solubility kinetic was 42.4 µg/mL (≈ 131 µM).

For `CN(c1ccc(OCC(=O)Nc2ccccc2C(=O)O)cc1)S(=O)(=O)c1ccc(Cl)cc1`, which solubility kinetic is on record?
Its solubility kinetic is over 71.2 µg/mL.

With `Cc1cccc(-c2noc(-c3ccccc3C(=O)NCc3ccco3)n2)c1` as the molecule, how does the solubility kinetic read?
The solubility kinetic was 8.9 µg/mL (≈ 24.8 µM).

Which solubility kinetic does the source give for `O=C(NC1CCS(=O)(=O)C1)c1cccc(Br)c1` (stereo not drawn) here?
Its solubility kinetic is over 47.7 µg/mL.

With `O=C(CCCc1ccccc1)NC12CC3CC(CC(C3)C1)C2` as the molecule, how does the solubility kinetic read?
Its solubility kinetic is 11 µg/mL (≈ 37 µM).

Which solubility kinetic does the source give for `CC(C)c1ccc(C(O)P(=O)(OCc2ccccc2)c2ccc(N(C)C)cc2)cc1` (stereo not drawn) here?
Its solubility kinetic is 6.2 µg/mL (≈ 14.6 µM).

With `Cc1ccccc1/C=C/c1cccc[n+]1C.[I-]` as the molecule, how does the solubility kinetic read?
The solubility kinetic was over 50.6 µg/mL.

For `COc1cc(C(=O)Cc2nc3ccccc3n2C)cc(OC)c1OC`, which solubility kinetic is on record?
Its solubility kinetic is over 51.1 µg/mL.

For `CCSc1nc2ccccc2n1CC(=O)O`, which solubility kinetic is on record?
Its solubility kinetic is over 35.4 µg/mL.

With `COc1cc(NC(=O)C2CC2)c(OC)cc1NC(=O)c1ccco1` as the molecule, how does the solubility kinetic read?
The solubility kinetic was 3.6 µg/mL (≈ 10.9 µM).

Which solubility kinetic does the source give for `CN(Cc1ccc(OC(F)F)cc1)C(=O)/C=C/c1ccc(S(=O)(=O)N2CCOCC2)cc1` here?
The solubility kinetic was 22.8 µg/mL (≈ 48.9 µM).

For `COc1ccccc1N1CCN(C(=O)c2cc(C)on2)CC1`, which solubility kinetic is on record?
Its solubility kinetic is over 45.2 µg/mL.

With `COc1ccc(CCNCc2cccn2C)cc1OC.Cl` as the molecule, how does the solubility kinetic read?
The solubility kinetic was over 46.6 µg/mL.

For `COc1ccccc1C(=O)OCC(=O)NC(C)CCc1ccccc1` (stereo not drawn), which solubility kinetic is on record?
The solubility kinetic was over 51.2 µg/mL.

For `Cc1ccccc1CC(=O)Nc1ccc2c(C)cc(=O)oc2c1`, which solubility kinetic is on record?
Its solubility kinetic is 2.1 µg/mL (≈ 6.83 µM).

With `Cc1oc(-c2ccccc2)cc1C(=O)NC1CCN(Cc2ccccc2)CC1` as the molecule, how does the solubility kinetic read?
The solubility kinetic was under 0.4 µg/mL.

With `Cc1ccc(N(CC(=O)N2CCc3ccccc3C2)S(C)(=O)=O)cc1` as the molecule, how does the solubility kinetic read?
The solubility kinetic was over 53.8 µg/mL.

Which solubility kinetic does the source give for `O=C(COC(=O)c1cnccn1)NC1CCCc2ccccc21` (stereo not drawn) here?
The solubility kinetic was over 46.7 µg/mL.

With `Cc1ccc(SCC(=O)NC2CC3CCC(C2)N3C)cc1` (stereo not drawn) as the molecule, how does the solubility kinetic read?
The solubility kinetic was 45.1 µg/mL (≈ 148 µM).

With `O=C(Nc1ccncc1)c1c(Cl)cccc1Cl` as the molecule, how does the solubility kinetic read?
The solubility kinetic was 8.9 µg/mL (≈ 33.3 µM).

With `COc1cc(SC)ccc1C(=O)Nc1nc(C)cc(C)n1` as the molecule, how does the solubility kinetic read?
The solubility kinetic was 40.7 µg/mL (≈ 134 µM).

For `Cc1cnc([N+](=O)[O-])n1CCOC(=O)NC(=O)c1ccccc1`, which solubility kinetic is on record?
The solubility kinetic was 44.4 µg/mL (≈ 139 µM).

Which solubility kinetic does the source give for `O=C(Nc1cccc2cccnc12)c1ccccc1Cl` here?
The solubility kinetic was 0.3 µg/mL (≈ 1.06 µM).

With `O=C(Nc1nccs1)C1CC=CCC1` (stereo not drawn) as the molecule, how does the solubility kinetic read?
The solubility kinetic was 22.7 µg/mL (≈ 109 µM).

Which solubility kinetic does the source give for `CC#CC[N+](C)(C)CCCCCCCC.[Br-]` here?
Its solubility kinetic is over 43.5 µg/mL.
